Tests used:
[1] = system: iMCD; details: literature case reports; cited from earlier work
[2] = system: iMCD patients; assay: Siltuximab phase II study (NCT01024036): durable symptomatic and tumor response criteria; format: in vivo, human
Text: Clinical and laboratory data were collected at the time of sample draw for iMCD patients. To assess disease activity, we adapted a previously published disease activity score using C-reactive protein, hemoglobin, and albumin.

[3] = system: CXCL13; assay: Serum proteomics (SomaLogic SOMAscan) during siltuximab therapy, phase II study; format: in vivo, human
Method: Methods. Clinical data and serum samples were collected as part of NCT01024036. We measured serum protein analytes in the 52 subjects who were treated with anti-IL6 therapy, as well as the 26 patients in the control arm, at day 1, day 8, and day 64 of therapy (infusions administered every 21 days). Serum samples from 44 healthy donors were also analyzed. Of the 1,305 analytes measured using SomaLogic SOMAscan, 1,178 passed QC and were included in analyses. Each analyte was log 2 transformed and capped at the 2.5th and 97.5th percentiles. Response to anti-IL6 therapy was determined by independent review in NCT01024036. Data processing was performed using the Medidata Rave Omics machine learning platform and R v3.4.4.
Linear mixed effects models were used to detect whether kinetic changes in protein expression were associated with anti-IL6 response. Upon running the full model with the selected covariates, the p-values of the interaction between time point and response were used to test for differences between responders and nonresponders.
A separate model was fitted using each protein, and False Discovery Rates (FDR) were estimated by the Benjamini-Hochberg method with alpha <0.05.

[4] = system: CXCL13; assay: Serum CXCL13 levels (absolute quantification, RBM) in validation cohort, siltuximab phase I study; format: in vivo, human
Text: Samples collected in real-world practice were included to better represent the full spectrum of iMCD. We obtained samples from 60 patients with diseases that overlap in clinical and pathological presentation with iMCD, including HHV8-associated MCD (N=20), HL (N=20), and RA (N=20), which are caused by viral, neoplastic, and autoimmune mechanisms, respectively, and 44 healthy individuals. […] All serum samples from the phase I and the phase II studies were collected and processed following respective standardized protocols.
For the 23 samples in the validation cohort, Rules Based Medicine (RBM) DiscoveryMap v1.0 was used to measure 190 serum analytes by a microsphere-based, multiplexed immunoassay platform.^18 RBM values were converted to standardized units and log 2 transformed. Of 190 proteins measured by RBM, 154 can be mapped to targets in the Somalogic platform, and 140 remained for analysis after filtering out low-quality targets on both platforms.
A […] was generated to identify 17% as the optimal reduction in CXCL13 levels to maximize sensitivity and specificity of this indicator (FIGS. 7 & 14). Specifically, if a patient has a 17% or greater reduction in CXCL13 levels, then the patient is highly likely to respond (FIGS. 15-16, Table 4). The proteins from patients in the discovery cohort described supra were quantified using a relative quantification while the protein quantification in the validation described in Table 4 utilized absolute quantification.

[5] = system: iMCD patients; details: cited from earlier work
[6] = system: CD19+CD27-IgD+B cells; assay: In vitro treatment of flow-sorted iMCD patient B cells, RNA sequencing and geneset enrichment analysis of Hallmark pathways; format: cell-based, human; details: serum plus rhCXCL13 compared to serum only
Method: An in vitro experiment was performed that included flow sorting CD19+CD27-IgD+B cells from peripheral blood mononuclear cells (PBMCs) derived from an iMCD patient and treating the CD19+CD27-IgD+B cells with either (A) serum only, (B) serum plus recombinant human CXCL13 (rhCXCL13) to assess the effects of CXCL13 on iMCD patient B cells, or (C) serum, rhCXCL13, and anti-CXCL13 (anti-CXCL13) antibody to assess the effects of this blocking antibody. Each of these samples had geneset enrichment analysis performed of the Hallmark pathways on RNA sequencing data.

[7] = Non-Responders (N = 13), Day 43

In the case of `C=CC[C@@H]1/C=C(\C)C[C@H](C)C[C@H](OC)[C@H]2O[C@@](O)(C(=O)C(=O)N3CCCC[C@H]3C(=O)O[C@H](/C(C)=C/[C@@H]3CC[C@@H](O)[C@H](OC)C3)[C@H](C)[C@@H](O)CC1=O)[C@H](C)C[C@@H]2OC` [tacrolimus], the “reported activity in iMCD” value [1] is given as “potential activity”.

With siltuximab the “patients with lymph node response by Cheson criteria who also achieved durable symptomatic response” value [2] was 18 of 20, the “CXCL13 levels in non-responders” value ([3]; by day 64) was “remained elevated” and the “CXCL13 levels in siltuximab responders” value ([3]; by day 64) was “decreased to levels approaching the healthy donor range”. The “9 serum proteins (IgA, BCMA, NPS-PLA2, ART, IL-18 BPa, CD5L, b2-Microglobulin, CXCL13, NRP1) in responders compared to non-responders” value ([3]; day 8, seven days after first siltuximab administration) was “significantly decreased”, the “CXCL13, Median (IQR)” value ([4]; Non-Responders (N = 13), Day 22/29, baseline 155 (79, 293)) was 249 (73.1, 466) pg/ml and the “CXCL13, Mean (SD)” value ([4]; Non-Responders (N = 13), Day 22/29, baseline 234 (240)) was 337 (381) pg/ml. The “CXCL13, Mean (SD)” value [4, 7] was 229.1 (190.3) pg/ml, the “CXCL13, Median (IQR)” value [4, 7] was 218 (62, 371) pg/ml and the “CXCL13, Median (IQR)” value ([4]; Responders (N = 10), Day 22/29, baseline 116 (57, 258)) was 41.1 (23.5, 62) pg/ml. The “CXCL13, Mean (SD)” value ([4]; Responders (N = 10), Day 22/29, baseline 241 (361)) was 71.5 (94.5) pg/ml, the “CXCL13, Mean (SD)” value ([4]; Responders (N = 10), Day 43) was 94.8 (70.6) pg/ml and the “CXCL13, Median (IQR)” value ([4]; Responders (N = 10), Day 43) was 94.4 (29.6, 147) pg/ml. For the same molecule, the “patients who met response criteria” value ([5]; Phase II study NCT01024036, assessed after a minimum of 48 weeks) was “one-third” and the “iMCD patients who did not meet primary response criteria” value ([5]; siltuximab phase II registrational study) was 66%.

B1: rhCXCL13: recombinant human CXCL13 (protein, UniProt O43927 23-109, looked up)
C-X-C motif chemokine 13: VLEVYYTSLRCRCVQESSVFIPRRFIDRIQILPRGNGCPRKEIIVWKKNKSIVCVDPQAEWIQRMMEVLRKRSSSTLPVPVFKRKIP
For B1, the “pathways previously found up-regulated in iMCD (IL6-JAK-STAT3, mTORC1, Interferon alpha response, interferon gamma response, complement, TNFα signaling via NFKb)” value [6] was “up-regulated”.
